Experimental data as given in PMC12081876, “Identification of PTGR2 inhibitors as a new therapeutic strategy for diabetes and obesity” (EMBO Molecular Medicine, 2025).
Several values for one entry are separate records, joined by “and”; a condition that tells them apart may be missing. Equal entries are not always repeated.

Experiments:
[1] = test system: HFHSD-fed obese C57BL6/J mice; test: Energy expenditure, food intake and physical activity (indirect calorimetry); type: in vivo, mouse; details: 40 mg/kg/day ip, vs vehicle
Experimental: Metabolic measurements (food and water intake, locomotor activity, VO2 consumption and VCO2 production) were obtained using the Promethion metabolic phenotyping system (Sable Systems). The mice were housed in the Promethion system with ad libitum access to food and water. Monitoring was performed for 5 days after mice have been acclimatized to the cages for 2 days.
All values were expressed as mean ± S.E.M. All reported sample sizes were biologically independent but not technically repeatedly measured. Skewed data was logarithmized to approximate normal distribution. Comparisons between two separate groups were performed using Student t-tests. Comparisons among multiple groups were conducted using a one-way analysis of variance with post hoc analyses. Statistical analyses were conducted using GraphPad Prism 8.0 and SAS 9. Energy expenditure between genotypes was analyzed using the generalized linear model according to international guidance (Speakman et al, [2013]; Tschöp et al, [2011]). Energy expenditure (expressed as kcal/hr) was regressed on body weight using the command “glm” implemented in STATA 14.0 (Speakman et al, [2013]; Tschöp et al, [2011]). Two-sided p-values < 0.05 were considered statistically significant. The sample size was determined according to our previous experience. There was no exclusion/inclusion criteria, blinding and randomization.

[2] = biological target: T1, murine PPARγ (mPPARγ) (Mus musculus, UniProt P37238); test: LC-MS/MS of covalent binding to mPPARγ overexpressed in HEK293T cells; details: HEK293T cells overexpressing mPPARγ
T1 construct: host or cells: HEK293T
Experimental: HEK293T cells were transfected with murin PPARγ (mPPARγ) and mPPARγ C313A plasmids for immunoprecipitation, which are Myc-DDK-tagged (OriGene, USA). […] According to the manufacturer’s protocol, proteins were immunoprecipitated using Anti-FLAG® M2 Magnetic Beads (2.5 mg/ml; cat. no. F1804, Sigma-Aldrich). Subsequently, the eluted proteins were separated by SDS-PAGE and subjected to immunoblot analysis. Following separation by SDS-PAGE, proteins were stained with Coomassie blue and SYPRO-Ruby stain. The protein bands of interest were cut out for in-gel tryptic digestion followed by C18 Zip-Tip clean-up (Millipore, USA). For proteomic shotgun identifications, nanoLC-nanoESI-MS/MS analysis was performed on a nanoAcquity system (Waters, USA) connected to the LTQ Orbitrap Velos hybrid MS (Thermo Electron, USA) equipped with a PicoView nanospray interface (New Objective, USA). Samples were loaded onto a C18 BEH column (75 μm × 25 cm length, 130 Å, 1.7 μm particle size) (Waters, USA) and separated by a segmented gradient form in 60 min from 5% to 40% acetonitrile (with 0.1% formic acid) at a constant flow rate of 300 nL/min with a column temperature of 35 °C. The mass spectrometer was operated in the data-dependent mode. […] Protein identification and modification were analyzed using Mascot Daemon (Matrix Science Inc., Chicago). […]
T1 sequence (P37238 whole entry, the tested form may be a part): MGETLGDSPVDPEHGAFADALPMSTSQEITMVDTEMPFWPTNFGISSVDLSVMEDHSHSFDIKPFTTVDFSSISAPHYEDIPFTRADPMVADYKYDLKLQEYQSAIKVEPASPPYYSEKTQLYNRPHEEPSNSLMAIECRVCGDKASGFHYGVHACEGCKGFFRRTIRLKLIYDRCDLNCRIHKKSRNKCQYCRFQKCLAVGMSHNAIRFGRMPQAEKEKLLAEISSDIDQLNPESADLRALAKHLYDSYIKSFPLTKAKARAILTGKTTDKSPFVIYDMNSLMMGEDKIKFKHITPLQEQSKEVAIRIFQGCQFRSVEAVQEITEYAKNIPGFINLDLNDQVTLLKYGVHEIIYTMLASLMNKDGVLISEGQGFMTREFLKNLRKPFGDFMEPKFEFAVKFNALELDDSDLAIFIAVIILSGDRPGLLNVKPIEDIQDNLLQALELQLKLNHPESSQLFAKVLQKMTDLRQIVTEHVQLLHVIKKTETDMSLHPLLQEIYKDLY

[3] = test system: Ucp1; test: Relative Ucp1 expression in fat depots (RT-qPCR); type: in vivo, mouse; details: 40 mg/kg/day ip, HFHSD-fed mice, vs vehicle
[4] = biological target: T2, murine PPARγ (mPPARγ) (Mus musculus, UniProt P37238); test: Gal4-PPARγ/UAS-LUC reporter assay in HEK293T cells; type: cell-based; set-up: key to Gal4-PPARγ/UAS-LUC reporter activity, Fig 1B replicates: luciferase activity normalized to TK reporter signal
T2 construct: host or cells: HEK293T
Experimental: Briefly, HEK293T cells were seeded in 24-well plates at 1 × 10^5 cells/well. […] Luciferase activity was measured using Luc-Pair™ Duo-Luciferase HS Assay Kit (cat. no. LF600, Promega) and normalized with the TK reporter signal.
T2 sequence (P37238 with tags, fused parts or gaps limits assumed): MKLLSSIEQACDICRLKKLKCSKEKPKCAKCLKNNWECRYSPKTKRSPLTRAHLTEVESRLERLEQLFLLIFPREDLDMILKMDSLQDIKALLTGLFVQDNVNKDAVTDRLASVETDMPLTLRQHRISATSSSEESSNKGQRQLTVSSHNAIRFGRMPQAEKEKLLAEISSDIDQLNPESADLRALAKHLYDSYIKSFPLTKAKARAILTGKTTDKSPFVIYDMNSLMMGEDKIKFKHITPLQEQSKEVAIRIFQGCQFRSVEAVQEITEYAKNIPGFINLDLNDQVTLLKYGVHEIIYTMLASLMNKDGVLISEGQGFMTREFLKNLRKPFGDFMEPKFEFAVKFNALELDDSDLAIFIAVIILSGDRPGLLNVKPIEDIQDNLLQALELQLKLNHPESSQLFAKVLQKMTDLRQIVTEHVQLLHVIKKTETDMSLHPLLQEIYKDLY

[5] = biological target: T3, mPPARγ (Mus musculus, UniProt P37238); test: Co-immunoprecipitation in mouse white adipose tissue; type: binding; details: epididymal white adipose tissue of Ptgr2+/+ and Ptgr2−/− mice
T3 construct: from tissue; host or cells: perigonadal (epididymal) white adipose tissue of Ptgr2+/+ and Ptgr2-/- mice
From the text: Lysates from the perigonadal fat of Ptgr2^+/+ and Ptgr2^−/− mice were immunoprecipitated with a mouse anti-15-keto-PGE2-cysteine-BSA antibody (1:1000) and then immunoblotted with a rat anti-PPARγ antibody (1:1000, cat. no. sc-7273, Santa Cruz Biotechnology).

[6] = Serum ALT, total bilirubin, BUN and creatinine; type: in vivo, mouse; details: 100 mg/kg/day, vs vehicle
[7] = biological target: T4, human PTGR2 (hPTGR2) (Homo sapiens, UniProt Q8N8N7); test: Recombinant human PTGR2 enzymatic inhibition (NADPH-Glo), IC50; type: biochemical
T4 construct: made in house
Experimental: High-throughput compound screening was conducted at the core service in the Genomics Research Center (GRC) of Academia Sinica, Taiwan. The GRC 120 K ReSet comprises more than 125,000 compounds, selected as representatives by structural similarity clustered from the 2 M GRC compound library. The ReSet was arrayed in 1536-well plates as single compounds at 1 mM in 100% DMSO. The quality of all compounds was assured by the vendor (purity is greater than 90%) and was verified internally with 5% random sampling. Recombinant human PTGR2 protein was purified, and the screening was conducted using the NADPH-Glo Detection kit (Promega) to measure the amount of NADPH. The CV of HTS ranged from 4.8% to 6.1%, with a Z’ value of 0.7. The threshold was set as 1.5, resulting in ~300 hits for further confirmation and determination of the half-maximal inhibitory concentration (IC50). […]

[8] = test system: HFHSD-fed obese C57BL6/J mice; test: Bone mineral density of femur (micro CT); type: in vivo, mouse

T4 sequence (Q8N8N7 whole entry): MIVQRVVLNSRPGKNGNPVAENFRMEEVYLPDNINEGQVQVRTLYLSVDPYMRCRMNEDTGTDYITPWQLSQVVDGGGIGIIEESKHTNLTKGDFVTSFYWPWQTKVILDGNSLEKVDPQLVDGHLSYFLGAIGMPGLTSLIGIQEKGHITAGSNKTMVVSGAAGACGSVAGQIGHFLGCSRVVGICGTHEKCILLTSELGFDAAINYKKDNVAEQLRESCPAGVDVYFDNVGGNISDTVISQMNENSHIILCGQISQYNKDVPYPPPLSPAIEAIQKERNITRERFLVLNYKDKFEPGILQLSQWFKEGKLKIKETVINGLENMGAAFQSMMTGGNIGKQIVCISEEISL
T3 sequence (P37238 whole entry): as the sequence (P37238 whole entry, the tested form may be a part) above

CCCCCC(=O)/C=C/[C@H]1[C@H](O)CC(=O)[C@@H]1C/C=C\CCCC(=O)O [15-keto-PGE2, 15-keto-prostaglandin E2]
energy expenditure ([1]; age 8 weeks): Higher energy expenditure | Food intake [1]: similar | physical activity [1]: similar | covalent binding site on mPPARγ (LC-MS/MS) [2]: covalently binds mPPARγ at the Cys313 residue | expression of Ucp1 in fat depots [3]: increased expression of Ucp1 in inguinal, perigonadal, and brown adipose tissues | Gal4-PPARγ/UAS-LUC reporter activity, Fig 1B replicates ([4]; 15kPGE2 5μM): 2.161 and 2.101 and 1.961 | Gal4-PPARγ/UAS-LUC reporter activity, Fig 1B replicates ([4]; 15kPGE2 10μM): 2.283 and 3.108 and 3.049 | Gal4-PPARγ/UAS-LUC reporter activity, Fig 1B replicates ([4]; 15kPGE2 30μM): 5.273 and 6.22 and 5.349 | transactivation activity of PPARγ (Gal4-PPARγ/UAS-LUC reporter) ([4]; HEK293T cells): enhanced the transactivation activity of PPARγ in a dose-dependent manner | co-immunoprecipitation of mPPARγ with anti-15-keto-PGE2-cysteine-BSA antibody in fat tissue [5]: confirming the covalent binding of mPPARγ to 15-keto-PGE2

Cc1[nH]c2nc(C(C)N3CCN(c4ccccc4)CC3)nn2c(=O)c1Cc1ccc(F)cc1 (stereo not shown) [BPRPT0245]
serum ALT, total bilirubin, BUN and creatinine levels [6]: no differences | Figure 5B raw signal of the hPTGR2 inhibition dose-response (replicates) ([7]; concentration 4.6 (unit not given)): 5700 and 5540 | Figure 5B raw signal of the hPTGR2 inhibition dose-response (replicates) ([7]; concentration 13.7 (unit not given)): 12160 and 11080 and 9760 | Figure 5B raw signal of the hPTGR2 inhibition dose-response (replicates) ([7]; concentration 41.2 (unit not given)): 25040 and 27420 and 26900 | Figure 5B raw signal of the hPTGR2 inhibition dose-response (replicates) ([7]; concentration 123.5 (unit not given)): 32220 and 32000 and 34120 | Figure 5B raw signal of the hPTGR2 inhibition dose-response (replicates) ([7]; concentration 370.4 (unit not given)): 37280 and 38620 and 37900 | Figure 5B raw signal of the hPTGR2 inhibition dose-response (replicates) ([7]; concentration 1111.1 (unit not given)): 40200 and 38760 and 38680 | Figure 5B raw signal of the hPTGR2 inhibition dose-response (replicates) ([7]; concentration 3333.3 (unit not given)): 40060 and 40940 and 40560 | Figure 5B raw signal of the hPTGR2 inhibition dose-response (replicates) ([7]; concentration 10000 (unit not given)): 42020 and 40520 and 40720 | IC50 ([7]; human PTGR2 enzymatic activity): 8.92 nM | Bone mineral density ([8]; 100 mg/kg/day oral, 26 weeks, vs vehicle): no difference | Figure 5T value (bone mineral density of femur), individual mice ([8]; individual values, BPRPT0245 group (Figure 5T)): 0.3548 and 0.3423 and 0.3795 and 0.3591 and 0.3711 and 0.3604 and 0.3411 and 0.3634 and 0.3483 and 0.3707
